Values belong to the molecule of their own block, whether it stands above or below them.
Tests used:
monocytes = experiment: Chemotaxis assay, monocytes; assay type: cell-based, human
Method: Human PBMC were isolated from leukopacks obtained through the courtesy of Transfusion Medicine Department, National Institutes of Health Clinical Center (Bethesda, Md.) by Ficoll-Hypaque density gradient centrifugation. Monocytes were purified from human PBMC by Percoll gradient to yield>90% pure preparations. […] H. Ali and R. Snyderman, Duke University (Durham, N.C.) and maintained in the presence of 0.8 mg/ml geneticin (G418, Life Technologies, Rockville, Md.) in DMEM supplemented with 10% FCS. B. Chemotaxis assay Migration of phagocytes and ETFR cells was assessed using a 48-well microchemotaxis chamber (Neuroprobe, Cabin John, Md.) as previously described (Hu et al. (2001) J Leukoc Biol 70 15512). Briefly, different concentrations of stimulants were placed in the wells of the lower compartment of the chamber, and 50 μl cells (1.5×10^6 cells/ml for monocyte and neutrophil, 1×10^6 ETFR cells/ml) were added to the wells of the upper compartment. The lower and upper compartments were separated by either a 5-μm (for monocyte) or a 10-μm pore size, collagen-coated (for ETFR cells) polycarbonate filter (Osmonics, Livermore, Calif.). After incubation at 37° C. in humidified air with 5% CO2 (60 min for neutrophils, 90 min for monocytes, 4.5 h for ETFR cells), the filter was removed and stained, and the cells migrating across the filter were counted with light microscopy. The results are presented as the mean number of cells (±SD) in three high power fields (HPFs). […] After thorough washing with cold medium (RPMI 1640, 1% BSA), the cells were resuspended and assayed. To measure the effect of various signaling inhibitors, unless otherwise indicated, the cells were pre-incubated at 37° C. for 60 min with the inhibitors, and were then added to the upper wells of the chemotaxis chamber.

FPR [1] = target: T1, FPR (Homo sapiens, UniProt P21462); experiment: Chemotaxis assay, RBL cells transfected with FPR (ETFR cells); assay type: cell-based; conditions: for inhibition of ETFR cell chemotaxis to CaG: CaG 10 μg/ml; for inhibition of ETFR cell chemotaxis to fMLF: fMLF 100 nM
T1 construct: expressed in transfected cells; host or cells: Rat basophilic leukemia (RBL) cells, stably transfected (ETFR cells); gift of H. Ali and R. Snyderman, Duke University
T1 sequence (P21462 1-350): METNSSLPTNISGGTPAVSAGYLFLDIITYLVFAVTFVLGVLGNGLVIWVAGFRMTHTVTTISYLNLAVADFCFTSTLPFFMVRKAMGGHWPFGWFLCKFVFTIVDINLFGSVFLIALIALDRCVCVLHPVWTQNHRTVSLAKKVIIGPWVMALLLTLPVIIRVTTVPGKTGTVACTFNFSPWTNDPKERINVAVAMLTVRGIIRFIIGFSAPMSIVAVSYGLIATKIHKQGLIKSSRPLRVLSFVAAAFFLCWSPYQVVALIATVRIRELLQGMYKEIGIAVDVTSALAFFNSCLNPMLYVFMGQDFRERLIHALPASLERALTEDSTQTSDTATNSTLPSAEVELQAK
Method: (§1) Human PBMC were isolated from leukopacks obtained through the courtesy of Transfusion Medicine Department, National Institutes of Health Clinical Center (Bethesda, Md.) by Ficoll-Hypaque density gradient centrifugation. Monocytes were purified from human PBMC by Percoll gradient to yield>90% pure preparations. […] H. Ali and R. Snyderman, Duke University (Durham, N.C.) and maintained in the presence of 0.8 mg/ml geneticin (G418, Life Technologies, Rockville, Md.) in DMEM supplemented with 10% FCS. B. Chemotaxis assay Migration of phagocytes and ETFR cells was assessed using a 48-well microchemotaxis chamber (Neuroprobe, Cabin John, Md.) as previously described (Hu et al. (2001) J Leukoc Biol 70 15512). Briefly, different concentrations of stimulants were placed in the wells of the lower compartment of the chamber, and 50 μl cells (1.5×10^6 cells/ml for monocyte and neutrophil, 1×10^6 ETFR cells/ml) were added to the wells of the upper compartment. The lower and upper compartments were separated by either a 5-μm (for monocyte) or a 10-μm pore size, collagen-coated (for ETFR cells) polycarbonate filter (Osmonics, Livermore, Calif.). After incubation at 37° C. in humidified air with 5% CO2 (60 min for neutrophils, 90 min for monocytes, 4.5 h for ETFR cells), the filter was removed and stained, and the cells migrating across the filter were counted with light microscopy. The results are presented as the mean number of cells (±SD) in three high power fields (HPFs). For analysis of cross-desensitization, cells were pretreated with indicated reagents for 1 h at 37° C. After thorough washing with cold medium (RPMI 1640, 1% BSA), the cells were resuspended and assayed. To measure the effect of various signaling inhibitors, unless otherwise indicated, the cells were pre-incubated at 37° C. for 60 min with the inhibitors, and were then added to the upper wells of the chemotaxis chamber.

neutrophils = experiment: Chemotaxis assay, neutrophils; assay type: cell-based, human; conditions: human neutrophils
Method: as §1

FPR [2] = target: T1, FPR; experiment: Chemotactic activity for ETFR cells after α1-ACT treatment of stimulants and supernatants; assay type: cell-based; conditions: α1-ACT 0.75 μM
Method: ETFR and RBL cells (10×10^6/ml) were incubated with medium or 10 μg/ml CaG at 37° C. for 1 h. Supernatants were collected and measured for chemotactic activity for un-treated ETFR cells.
as §1
Cleavage by proteases is required for regulation of the function of a number of molecules in triggering proper physiological processes. […] Therefore, we examined whether interaction of FPR with CaG might cleave FPR to generate a new defacto agonist for this receptor, such as in the model of thrombin activation of its receptors. ETFR cells were cultured with CaG under the conditions that are sufficient for cleavage of other proteins by CaG (Kinlough-Rathbone et al. (1999) Thromb Res 95, 31524). The supernatant was collected and examined for its chemotactic activity for FPR. […]

Molecule: C/C=C/C[C@@H](C)[C@@H](O)[C@H]1C(=O)N[C@@H](CC)C(=O)N(C)CC(=O)N(C)[C@@H](CC(C)C)C(=O)N[C@@H](C(C)C)C(=O)N(C)[C@@H](CC(C)C)C(=O)N[C@@H](C)C(=O)N[C@H](C)C(=O)N(C)[C@@H](CC(C)C)C(=O)N(C)[C@@H](CC(C)C)C(=O)N(C)[C@H](C(C)C)C(=O)N1C [CsH, Cyclosporin H, reference compound]
inhibition of monocyte chemotaxis to CaG (monocytes; CaG 10 μg/ml): abolished monocyte chemotaxis to CaG and fMLF
inhibition of monocyte chemotaxis to fMLF (monocytes; fMLF 10 nM): abolished monocyte chemotaxis to CaG and fMLF

Molecule: CN(C)CCCn1cc(C2=C(c3c[nH]c4ccccc34)C(=O)NC2=O)c2ccccc21 [Gö 6850, bisindolylmaleimide I]
inhibition of ETFR cell chemotaxis to CaG (FPR [1]): limited effect on fMLF- and CaG-induced ETFR cell migration
inhibition of ETFR cell chemotaxis to fMLF (FPR [1]): limited effect on fMLF- and CaG-induced ETFR cell migration
inhibition of neutrophil chemotaxis to CaG (neutrophils): did not have any effect
inhibition of neutrophil chemotaxis to IL-8 (neutrophils): did not have any effect
inhibition of neutrophil chemotaxis to fMLF (neutrophils): did not have any effect

Molecule: CN[C@@H]1C[C@H]2O[C@@](C)([C@@H]1OC)n1c3ccccc3c3c4c(c5c6ccccc6n2c5c31)C(=O)NC4 [Staurosporine, reference compound]
inhibition of ETFR cell chemotaxis to CaG (FPR [1]): abrogated chemotaxis of ETFR cells induced by either CaG or fMLF
inhibition of ETFR cell chemotaxis to fMLF (FPR [1]): abrogated chemotaxis of ETFR cells induced by either CaG or fMLF

effect on chemotactic activity of supernatant from CaG-digested ETFR cells (FPR [2]; 15 min room temperature): completely abolished
effect on chemotactic activity of supernatants from CaG-treated RBL cells (FPR [2]; 15 min room temperature): inhibited by α1-ACT
B1: α1-ACT: α1-antichymotrypsin, CaG inhibitor (protein, UniProt P01011 24-423, looked up)
Alpha-1-antichymotrypsin: HPNSPLDEENLTQENQDRGTHVDLGLASANVDFAFSLYKQLVLKAPDKNVIFSPLSISTALAFLSLGAHNTTLTEILKGLKFNLTETSEAEIHQSFQHLLRTLNQSSDELQLSMGNAMFVKEQLSLLDRFTEDAKRLYGSEAFATDFQDSAAAKKLINDYVKNGTRGKITDLIKDLDSQTMMVLVNYIFFKAKWEMPFDPQDTHQSRFYLSKKKWVMVPMMSLHHLTIPYFRDEELSCTVVELKYTGNASALFILPDQDKMEEVEAMLLPETLKRWRDSLEFREIGELYLPKFSISRDYNLNDILLQLGIEEAFTSKADLSGITGARNLAVSQVVHKAVLDVFEEGTEASAATAVKITLLSALVETRTIVRFNRPFLMIIVPTDTQNIFFMSKVTNPKQA
effect on chemotactic activity of CaG (FPR [2]; CaG 10 μg/ml): significantly reduced chemotactic activity
effect on chemotactic activity of fMLF (FPR [2]; fMLF 100 nM): did not affect the chemotactic activity of fMLF for FPR

Reference: patent US20060008891A1, “Cathepsin G-related peptides as modulators of formylpeptide receptors (FPR)” (The Government of USA as repersented by the Secretary, …, priority 2004, published 2006)
